We go through 21 compounds from patent US12110288B2, “MASP-2 inhibitors and methods of use” (Omeros Corporation, priority 2019, dated 2024).

Structures can show the parent of a compound that is named as a salt. A value given as a limit tells only on which side of the number the result lay.

The target in this assay is T1, MASP-2 (CCP1-CCP2-SP) (Homo sapiens, UniProt O00187).
T1 construct: 15 μL of Enzyme MASP-2 (CCP1-CCP2-SP) in Assay Buffer
As to the kind of experiment: Enzymatic Assay for MASP-2. The assay is classed as biochemical. The conditions noted are these: fluorogenic substrate based on C2 cleavage site, room temperature, 20 mM HEPES pH 7.4. Here is the method: Enzymatic Assay for MASP-2
The MASP-2 assay utilizes a fluorogenic substrate, based on the cleavage site for its natural substrate C2. The assay is run at room temperature in an assay buffer containing 20 mM HEPES, pH 7.4, 140 mM NaCl and 0.1% Tween 20. Assay parameters are adjusted such that the assay is linear with respect to time, enzyme, and substrate concentrations. Under these optimized assays conditions, IC50 values are equivalent to Ki values, except in a few cases of “tight binding” inhibitors. Cases of “tight binding” or possible “slow binding” inhibitors are handled by the methods described in Copeland R. A. (2013) Evaluation of Enzyme Inhibitors in Drug Discovery. 2nd Ed., John Wiley and Sons, Inc., Chapters 5-7.
The MASP-2 assay protocol is carried out as follows. Test compounds are serially diluted in DMSO and then 100 nL of each dilution is transferred to the assay plate(s). 10 μL of Assay Buffer is added, followed by 15 μL of Enzyme MASP-2 (CCP1-CCP2-SP) in Assay Buffer. 15 μL of Substrate in Assay Buffer is then added and mixed to start the reactions. After 20 min at room temperature, 15 μL of a stop solution (0.1 M acetic acid) is added, mixed and the plates are read on a SpectraMax i3x Microplate Reader and exported as Excel files. Each assay plate included a “no inhibitor” (DMSO Only) control, a “no enzyme” control and a reference inhibitor control. % Activity values=100*(average test comp. fluorescence−average “no enzyme” fluorescence)/(average “DMSO only” fluorescence−average “no enzyme” fluorescence). IC50 and Ki values are very reproducible, falling well within ±2-fold.

T1 sequence (O00187 445-686 limits assumed): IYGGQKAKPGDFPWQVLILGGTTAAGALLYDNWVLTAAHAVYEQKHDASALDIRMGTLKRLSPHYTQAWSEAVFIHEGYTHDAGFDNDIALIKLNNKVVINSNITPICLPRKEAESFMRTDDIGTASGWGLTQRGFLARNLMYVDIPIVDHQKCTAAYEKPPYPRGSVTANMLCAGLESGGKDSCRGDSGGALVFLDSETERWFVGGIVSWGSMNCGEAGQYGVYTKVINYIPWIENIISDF
T1 sequence (O00187 298-444 partner limits assumed): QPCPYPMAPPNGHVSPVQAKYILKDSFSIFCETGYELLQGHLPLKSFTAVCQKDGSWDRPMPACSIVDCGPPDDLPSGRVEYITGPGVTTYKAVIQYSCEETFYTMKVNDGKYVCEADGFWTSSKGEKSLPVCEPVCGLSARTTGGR

In turn, `O=C(Cn1c(-c2ccccc2)cnc(NCC2(c3ccc(Cl)cc3)CC2)c1=O)NCc1cc2cnccc2[nH]1` [Compound 57, N-((1H-Pyrrolo[3,2-c]pyridin-2-yl)methyl)-2-(3-(((1-(4-chlorophenyl)cyclopropyl)methyl)amino)-2-oxo-6-phenylpyrazin-1(2H)-yl)acetamide trifluoroacetate] yielded a Ki below 500 nM.
The figure for `O=C(Cn1c(-c2cnn(C(F)F)c2)cnc(NCCc2ccccc2)c1=O)NCc1cc2cnccc2[nH]1` [Compound 113, N-((1H-Pyrrolo[3,2-c]pyridin-2-yl)methyl)-2-(6-(1-(difluoromethyl)-1H-pyrazol-4-yl)-2-oxo-3-(phenethylamino)pyrazin-1(2H)-yl)acetamide] is below 500 nM.
The result for `C[C@H](Nc1ncc(-c2ccccc2)n(CC(=O)NCc2cc3cnccc3[nH]2)c1=O)c1ccccc1` [Compound 156, (S)-N-((1H-Pyrrolo[3,2-c]pyridin-2-yl)methyl)-2-(2-oxo-6-phenyl-3-((1-phenylethyl)amino)pyrazin-1(2H)-yl)acetamide] reads below 500 nM; that for `O=C(Cn1c(-c2ccccc2)cnc(NCC2(c3ccccc3)COC2)c1=O)NCc1cc2cnccc2[nH]1` [Compound 47, N-((1H-pyrrolo[3,2-c]pyridin-2-yl)methyl)-2-(2-oxo-6-phenyl-3-(((3-phenyloxetan-3-yl)methyl)amino)pyrazin-1(2H)-yl)acetamide trifluoroacetate], below 500 nM.
Take `Cc1nc(N)ccc1CNC(=O)Cn1c(-c2ccccc2)ncc(NCCc2ccccc2)c1=O` [Compound 6, N-((6-Amino-2-Methylpyridin-3-yl)Methyl)-2-(6-Oxo-5-(Phenethylamino)-2-Phenylpyrimidin-1(6H)-yl)Acetamide]: the Ki is below 500 nM.
`Cc1nc(N)ccc1CNC(=O)Cn1c(-c2ccccc2)c(Cl)nc(NCCc2ccccc2)c1=O` [Compound 41, N-((6-Amino-2-Methylpyridin-3-yl)Methyl)-2-(5-Chloro-2-Oxo-3-(Phenethylamino)-6-Phenylpyrazin-1(2H)-yl)Acetamide] gave a Ki of 500 to 2500 nM.
The figure for `CS(=O)(=O)NCc1cccc(-c2cnc(NCCc3ccccc3)c(=O)n2CC(=O)NCc2cc3cnccc3[nH]2)c1` [Compound 95, N-((1H-Pyrrolo[3,2-c]Pyridin-2-yl)Methyl)-2-(6-(3-(Methylsulfonamidomethyl)Phenyl)-2-Oxo-3-(Phenethylamino)Pyrazin-1(2H)-yl)Acetamide] is below 500 nM; for `O=C(Cn1c(-c2ccccc2)cnc(NCCC(F)F)c1=O)NCc1cc2cnccc2[nH]1` [Compound 127, N-((1H-Pyrrolo[3,2-c]pyridin-2-yl)methyl)-2-(3-((3,3-difluoropropyl)amino)-2-oxo-6-phenylpyrazin-1(2H)-yl)acetamide trifluoroacetate] it is below 500 nM.
The compound `O=C(Cn1c(-c2ccccc2)cnc(NCc2cccc(Cl)c2)c1=O)NCc1cc2cnccc2[nH]1` [Compound 75, N-((1H-Pyrrolo[3,2-c]pyridin-2-yl)methyl)-2-(3-((3-chlorobenzyl)amino)-2-oxo-6-phenylpyrazin-1(2H)-yl)acetamide trifluoroacetate] yielded a Ki below 500 nM.
The compound `O=C(Cn1c(-c2ccccc2)cnc(NCC2(c3ccc(F)cc3)CC2)c1=O)NCc1cc2cnccc2[nH]1` [Compound 59, N-((1H-Pyrrolo[3,2-c]pyridin-2-yl)methyl)-2-(3-(((1-(4-fluorophenyl)cyclopropyl)methyl)amino)-2-oxo-6-phenylpyrazin-1(2H)-yl)acetamide trifluoroacetate] returned a Ki below 500 nM.
The compound `O=C(Cn1c(-c2ccccc2F)cnc(NCCc2ccccc2)c1=O)NCc1cc2cnccc2[nH]1` [Compound 86, N-((1H-Pyrrolo[3,2-c]Pyridin-2-yl)Methyl)-2-(6-(2-Fluorophenyl)-2-Oxo-3-(Phenethylamino)Pyrazin-1(2H)-yl)Acetamide Trifluoroacetate] registered a Ki below 500 nM.
The result for `Cn1cc(NS(=O)(=O)Cc2ccccc2)c(=O)n(CC(=O)NCc2ccc(C(=N)N)cc2)c1=O` [Compound 37, N-(4-Carbamimidoylbenzyl)-2-(3-Methyl-2,6-Dioxo-5-((Phenylmethyl)Sulfonamido)-3,6-Dihydropyrimidin-1(2H)-yl)Acetamide, Trifluoroacetate] reads 500 to 2500 nM; that for `O=C(Cn1c(-c2ccccc2)cnc(NCC2(c3ccccc3F)COC2)c1=O)NCc1cc2cnccc2[nH]1` [Compound 62, N-((1H-Pyrrolo[3,2-c]pyridin-2-yl)methyl)-2-(3-(((3-(2-fluorophenyl)oxetan-3-yl)methyl)amino)-2-oxo-6-phenylpyrazin-1(2H)-yl)acetamide trifluoroacetate], below 500 nM; that for `Cn1cc(-c2cnc(NCCc3ccccc3)c(=O)n2CC(=O)NCc2cnc3[nH]ccc3c2)cn1` [Compound 131, N-((1H-Pyrrolo[2,3-b]Pyridin-5-yl)Methyl)-2-(6-(1-Methyl-1H-Pyrazol-4-yl)-2-Oxo-3-(Phenethylamino)Pyrazin-1(2H)-yl)Acetamide], above 10000 nM.
The result for `C=C(C)c1cccc(-c2cnc(NCCc3ccccc3)c(=O)n2CC(=O)NCc2cc3cnccc3[nH]2)c1` [Compound 91, N-((1H-Pyrrolo[3,2-c]Pyridin-2-yl)Methyl)-2-(2-Oxo-3-(Phenethylamino)-6-(3-(Prop-1-en-2-yl)Phenyl)Pyrazin-1(2H)-yl)Acetamide] reads below 500 nM.
`Cn1cc(-c2cnc(NCCc3ccccc3)c(=O)n2CC(=O)NCc2cc3c(s2)CCNC3)cn1` [Compound 78, 2-(6-(1-Methyl-1H-Pyrazol-4-yl)-2-Oxo-3-(Phenethylamino)Pyrazin-1(2H)-yl)-N-((4,5,6,7-Tetrahydrothieno[3,2-c]Pyridin-2-yl)Methyl)Acetamide] showed a Ki of 500 to 2500 nM.
The result for `O=C(Cn1c(-c2ccccc2)cnc(N2CC(c3ccccc3)C2)c1=O)NCc1cc2cnccc2[nH]1` [Compound 139, N-((1H-Pyrrolo[3,2-c]pyridin-2-yl)methyl)-2-(2-oxo-6-phenyl-3-(3-phenylazetidin-l-yl)pyrazin-1(2H)-yl)acetamide] reads below 500 nM.
`Cc1nc(N)ccc1CNC(=O)Cn1c(-c2ccc(C#N)cc2)cnc(NCCc2ccccc2)c1=O` [Compound 27, N-((6-Amino-2-Methylpyridin-3-yl)Methyl)-2-(6-(4-Cyanophenyl)-2-Oxo-3-(Phenethyl Amino)Pyrazin-1(2H)-yl)Acetamide] came in with a Ki below 500 nM.
With `CC(C)Nc1ncc(-c2ccccc2)n(CC(=O)NCc2cc3cnccc3[nH]2)c1=O` [Compound 134, N-((1H-Pyrrolo[3,2-c]Pyridin-2-yl)Methyl)-2-(3-(Isopropylamino)-2-Oxo-6-Phenylpyrazin-1(2H)-yl)Acetamide], the Ki was below 500 nM.
The figure for `O=C(Cn1c(-c2ccccc2)cnc(NCC2(c3ccccc3)CCOC2)c1=O)NCc1cc2cnccc2[nH]1` (stereo not drawn) [Compound 50, N-((1H-Pyrrolo[3,2-c]pyridin-2-yl)methyl)-2-(2-oxo-6-phenyl-3-(((3-phenyltetrahydrofuran-3-yl)methyl)amino)pyrazin-1(2H)-yl)acetamide trifluoroacetate] is below 500 nM; for `O=C(Cn1c(-c2ccccc2)cnc(NCCc2ccccc2)c1=O)NCc1cc2c(s1)CNCC2` [Compound 83, 2-(2-Oxo-3-(Phenethylamino)-6-Phenylpyrazin-1(2H)-yl)-N-((4,5,6,7-Tetrahydrothieno[2,3-c]Pyridin-2-yl)Methyl)Acetamide] it is below 500 nM.
